Measurements published in patent publication US9757457B2, “Use of 2-deoxy-D-glucose to sensitize cancer cells to an agent that activates the extrinsic apoptotic pathway” (The Board of Trustees of the University of Illinois, priority 2013, dated 2017).

What was measured:
[1] = tested on: human colon cancer cells
[2] = tested on: HT29 cells; assay: Tumor cell apoptosis in HT29 colon cancer cells (Annexin V flow cytometry; caspase-3 activation); type: cell-based, human; settings: for tumor cell apoptosis: HT29 cells, any dose, Annexin V staining, flow cytometry
Method: FIG. 2A, HT-29 cells were treated with a general caspase inhibitor (Q-VD-OPh) and simultaneously treated with the indicated compounds. Apoptosis was assessed by Annexin V/PI staining. FIG. 2B, HT-29 cells were stably transfected with CrmA, DN-FADD plasmid constructs (a dominant-negative variant of FAS-associated via death domain protein) or an empty vector. These cell lines, as well as untransfected cells, were then treated with the indicated compounds and apoptosis was assessed by Annexin V/PI staining. n=3, * indicates p<0.05, ** indicates p<0.01, ns indicates p>0.05.
(§1) While this makes TRAIL a promising anti-cancer therapy, there are numerous examples of both inherent and acquired resistance to TRAIL treatment. […] It was posited that this may have been due to either inherent or acquired TRAIL resistance. Therefore, a panel of well-established human colorectal tumor cell lines (HT-29, COLO-205 and SW-620) was analyzed to determine TRAIL sensitivity. […] Therefore, this human cell line was selected for use as a model for in vitro experiments.
To assess the effect of 2DG on HT29 cells, HT29 cells were treated with increasing doses (0-50 mM) of 2DG in vitro.
(§2) To assess the effect of TRAIL on colon (HT29, COLO-205, SW-620), gastric (AGS) and pancreatic (PANC-1) cancer cell lines, cells were treated with increasing doses (0, 6.25, 12.5, 25, 50 and 100 ng/mL) of TRAIL in vitro.
To determine the mechanism of apoptosis, HT-29 and SW-620 cells were treated every 6 hours with 2DG, TRAIL or 2DG and TRAIL. […] HT-29 cells were also fractionated into cytoplasmic and membrane-heavy fractions, with COXIV as a marker of the membrane heavy fraction and beta actin as a loading control.
(§3) TRAIL mediates its effects by binding to cell surface death receptors 4 and 5 (DR4, DR5). This initiates the extrinsic apoptosis pathway ultimately resulting in cell death. Therefore, it was determined whether 2DG primes tumor cells to TRAIL by altering DR expression in HT29 cells. […] By comparison, DR4 levels were unchanged by 2DG treatment. In addition, increased surface expression of DR5 correlated with TRAIL sensitivity over time.

[3] = tested on: COLO-205; assay: Tumor cell apoptosis in COLO-205 colon cancer cells (Annexin V flow cytometry); type: cell-based, human; settings: TRAIL 0-100 ng/mL, any dose, Annexin V staining
Method: as §1, §2

[4] = tested on: SW-620; assay: Tumor cell apoptosis in SW-620 colon cancer cells (Annexin V flow cytometry; caspase-3 activation); type: cell-based, human; settings: TRAIL 0-100 ng/mL, any dose, Annexin V staining
Method: as §1, §2

[5] = tested on: AGS gastric cancer cell line; assay: Tumor cell apoptosis in AGS gastric cancer cell line (Annexin V flow cytometry; caspase-3 activation); type: cell-based; settings: TRAIL 0-100 ng/mL, any dose, Annexin V staining
Method: as §2

[6] = tested on: PANC-1 pancreatic cancer cell line; assay: Tumor cell apoptosis in PANC-1 pancreatic cancer cell line (Annexin V flow cytometry; caspase-3 activation); type: cell-based; settings: TRAIL 0-100 ng/mL, any dose, Annexin V staining
Method: as §2

[7] = tested on: human cancer patients with various tumor histologies; settings: phase I trial, cited from earlier work
[8] = tested on: DR5; assay: Death receptor expression in HT29 cells after 2DG: DR5; type: cell-based, human; settings: HT29 cells after treatment with 2DG
Method: as §3

[9] = tested on: DR4; assay: Death receptor expression in HT29 cells after 2DG: DR4; type: cell-based, human; settings: HT29 cells after treatment with 2DG
Method: as §3

[10] = clinical trials; cited from earlier work

With `CC(=O)N[C@@H](CS)C(=O)O` [N-acetylcysteine] the “effect on cytotoxicity of 2DG and oxaliplatin” value [1] was “can abrogate this cytotoxicity”.
For `CC(C)[C@H](NC(=O)c1ccc2ccccc2n1)C(=O)N[C@@H](CC(=O)O)C(=O)COc1c(F)cccc1F` [Q-VD-OPh], the “effect of caspase blockade on anti-tumor effect of 2DG and TRAIL” value ([2]; HT-29, simultaneous treatment with 2DG and TRAIL, Annexin V/PI staining, FIG. 2A) was “inhibited the anti-tumor effect of the combination treatment”.
In the case of “TRAIL: TNF-related apoptosis-inducing ligand; cytokine that causes apoptosis by binding death receptors DR4 and DR5”, the tumor cell apoptosis ([2]; TRAIL 0-100 ng/mL) is reported as no more than 12%, the “TRAIL sensitivity (TRAIL-induced apoptosis)” value ([2]; HT-29 cell line, maximal doses) is reported as “resistance to TRAIL at even maximal doses” and the tumor cell apoptosis [3] is reported as no more than 12%. The tumor cell apoptosis [4] was no more than 12%, the tumor cell apoptosis [5] was no more than 12% and the tumor cell apoptosis [6] was no more than 12%. For the same molecule, the tolerability [7] was “well-tolerated” and the objective tumor response ([7]; patients with colorectal cancer) was “none of the patients with colorectal cancer had an objective tumor response”.
With `OCC1OC(O)CC(O)[C@@H]1O` (stereo in doubt) [2DG, 2-deoxy-D-glucose] the tumor cell apoptosis ([2]; 2DG 0-50 mM) was no more than 5%, the “DR5 mRNA level” value [8] was “upregulated” and the “DR5 total protein level” value [8] was “upregulated”. For the same molecule, the DR4 levels [9] was “unchanged” and the tolerability [10] was “well-tolerated”.
